Laboratory results from patent US20170334899A1, “AMINO-SUBSTITUTED ISOTHIAZOLES” (Bayer Pharma Aktiengesellschaft, priority 2014, published 2017).
Several values for one entry are separate records, joined by “and”; a condition that tells them apart may be missing. Identical values can stand only once.

Target: T1, human kinase Mps-1 (Homo sapiens, UniProt P33981)
T1 construct: N-terminally GST-tagged human full length recombinant Mps-1 kinase; GST (N); purchased Invitrogen, Karslruhe, Germany PV4071
T1 sequence (P33981 1-857): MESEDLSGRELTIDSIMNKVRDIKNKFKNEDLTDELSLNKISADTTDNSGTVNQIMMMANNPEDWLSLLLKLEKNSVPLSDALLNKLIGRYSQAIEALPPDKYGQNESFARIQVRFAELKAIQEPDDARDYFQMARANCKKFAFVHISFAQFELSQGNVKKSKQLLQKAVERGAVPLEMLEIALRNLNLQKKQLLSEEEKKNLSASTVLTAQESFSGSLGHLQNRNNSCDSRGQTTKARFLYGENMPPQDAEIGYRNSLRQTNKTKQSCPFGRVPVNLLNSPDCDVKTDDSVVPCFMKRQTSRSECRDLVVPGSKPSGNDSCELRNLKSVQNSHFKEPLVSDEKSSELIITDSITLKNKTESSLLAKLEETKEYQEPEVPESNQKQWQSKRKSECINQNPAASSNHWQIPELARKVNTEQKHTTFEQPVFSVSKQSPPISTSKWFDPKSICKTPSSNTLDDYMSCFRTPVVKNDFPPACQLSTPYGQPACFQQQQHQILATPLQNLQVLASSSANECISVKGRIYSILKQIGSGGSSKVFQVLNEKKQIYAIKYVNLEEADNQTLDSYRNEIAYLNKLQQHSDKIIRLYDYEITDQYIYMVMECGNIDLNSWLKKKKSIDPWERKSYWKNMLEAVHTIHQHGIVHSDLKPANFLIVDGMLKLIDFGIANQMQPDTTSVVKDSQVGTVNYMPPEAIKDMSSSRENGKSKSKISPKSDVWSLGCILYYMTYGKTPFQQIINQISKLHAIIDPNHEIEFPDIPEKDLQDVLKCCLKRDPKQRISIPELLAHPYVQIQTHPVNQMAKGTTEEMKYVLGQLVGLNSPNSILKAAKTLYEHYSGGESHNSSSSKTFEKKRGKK
Assay: Mps-1 kinase assay (TR-FRET)
Assay type: biochemical
Conditions: Mps-1 TR-FRET kinase assay; avg; read-out: Mps1 avg (IC50 [mol/l])
Method in brief: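 Inhibition normalised between uninhibited reaction (0%) and enzyme-free wells (100%), using the blank-corrected TR-FRET 665/620 nm ratio after EDTA stop. Reaction: ~0.5 nM GST-Mps-1 full length, 10 μM ATP, 1 μM biotin-peptide, 60 min at 22 °C, after 15 min compound pre-binding, pH 7.7.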

Row | SMILES | IC50
1 | Cc1nsc(Nc2cnc3ccccc3n2)c1C(=O)Nc1cccc(C(=O)N[C@H](C(=O)OC(C)(C)C)[C@@H](C)OC(C)(C)C)c1 [Example 57, tert-Butyl O-tert-butyl-N-[3-({[3-methyl-5-(quinoxalin-2-ylamino)-1,2-thiazol-4 yl]carbonyl}amino)-benzoyl]threoninate] | ≥ 20 µM
2 | Cc1nsc(Nc2cnc(C(F)(F)F)cn2)c1C(=O)Nc1ccc(F)c(OCC2CCN(CC(F)(F)F)C2)c1 (centres unmarked) [Example 318, N-(4-fluoro-3-{[1-(2,2,2-trifluoroethyl)pyrrolidin-3-yl]methoxy}phenyl)-3-methyl-5-{[5-(trifluoromethyl)pyrazin-2-yl]amino}-1,2-thiazole-4-carboxamide] | > 20 µM
3 | Cc1nsc(Nc2cnc(C(F)(F)F)cn2)c1C(=O)Nc1ccc(OC[C@H]2CCN(CC(F)(F)F)C2)nc1 [Example 404, 3-Methyl-N-(6-{[(3S)-1-(2,2,2-trifluoroethyl)pyrrolidin-3-yl]methoxy}pyridin-3-yl)-5-{[5-(trifluoromethyl)pyrazin-2-yl]amino}-1,2-thiazole-4-carboxamide] | > 20 µM
4 | Cc1nsc(Nc2ccc(C#N)cn2)c1C(=O)Nc1ccc(OC[C@H]2CCN(CC(F)(F)F)C2)nc1 [Example 405, 5-[(5-Cyanopyridin-2-yl)amino]-3-methyl-N-(6-{[(35)-1-(2,2,2-trifluoroethyl)pyrrolidin-3-yl]methoxy}pyridin-3-yl)-1,2-thiazole-4-carboxamide] | > 20 µM
5 | CCN1CCC(Oc2ccc(NC(=O)c3c(C)nsc3Nc3cnc(C(F)(F)F)cn3)cn2)C(F)(F)C1 (centres unmarked) [Example 406, N-{6-[(1-Ethyl-3,3-difluoropiperidin-4-yl)oxy]pyridin-3-yl}-3-methyl-5-{[5-(trifluoromethyl)pyrazin-2-yl]amino}-1,2-thiazole-4-carboxamide] | > 20 µM
6 | Cc1nsc(Nc2cnc(C(F)(F)F)cn2)c1C(=O)Nc1ccc(OCCN2CCC(F)(F)CC2)nc1 [Example 407, N-{6-[2-(4,4-Difluoropiperidin-1-yl)ethoxy]pyridin-3-yl}-3-methyl-5-{[5-(trifluoromethyl)pyrazin-2-yl]amino}-1,2-thiazole-4-carboxamide] | > 20 µM
7 | CCN1CC[C@H](Oc2ccc(NC(=O)c3c(C)nsc3Nc3cnc(C(F)(F)F)cn3)cn2)[C@H](F)C1 [Example 424, N-(6-{[(3R,4S)-1-Ethyl-3-fluoropiperidin-4-yl]oxy}pyridin-3-yl)-3-methyl-5-{[5-(trifluoromethyl)pyrazin-2-yl]amino}-1,2-thiazole-4-carboxamide] | > 20 µM
8 | Cc1nsc(Nc2cnc(C(F)(F)F)cn2)c1C(=O)Nc1ccc(OCCNC(=O)C(F)(F)F)nc1 [Example 425, 3-Methyl-N-(6-{2-[(trifluoroacetyl)amino]ethoxy}pyridin-3-yl)-5-{[5-(trifluoro-methyl)pyrazin-2-yl]amino}-1,2-thiazole-4-carboxamide] | ≥ 20 µM
9 | Cc1nsc(Nc2cnc(C(F)(F)F)cn2)c1C(=O)Nc1ccc(F)c(OCCCNC(=O)C(F)(F)F)c1 [Example 427, N-(4-Fluoro-3-{3-[(trifluoroacetyl)amino]propoxy}phenyl)-3-methyl-5-{[5-(trifluoro-methyl)pyrazin-2-yl]amino}-1,2-thiazole-4-carboxamide] | ≥ 20 µM
10 | Cc1nsc(Nc2cnc(C(F)(F)F)cn2)c1C(=O)Nc1ccc(OCCCNC(=O)C(F)(F)F)nc1 [Example 428, 3-Methyl-N-(6-{3-[(trifluoroacetyl)amino]propoxy}pyridin-3-yl)-5-{[5-(trifluoro-methyl)pyrazin-2-yl]amino}-1,2-thiazole-4-carboxamide] | > 20 µM
11 | Cc1nsc(Nc2cnc(C(F)(F)F)cn2)c1C(=O)Nc1ccc(OCCN(C)C(=O)OC(C)(C)C)nc1 [Example 429, tert-Butyl methyl{2-[(5-{[(3-methyl-5-{[5-(trifluoromethyl)pyrazin-2-yl]amino}-1,2-thiazol-4-yl)carbonyl]amino}pyridin-2-yl)oxy]ethyl}carbannate] | > 20 µM
12 | Cc1nsc(Nc2cncc(C(F)(F)F)n2)c1C(=O)Nc1ccc(OCCN(C)C(=O)OC(C)(C)C)nc1 [Example 430, tert-Butyl methyl{2-[(5-{[(3-methyl-5-{[6-(trifluoromethyl)pyrazin-2-yl]amino}-1,2-thiazol-4-yl)carbonyl]amino}pyridin-2-yl)oxy]ethyl}carbannate] | > 20 µM
13 | Cc1nsc(Nc2cnc(C(F)(F)F)cn2)c1C(=O)Nc1ccc(OC2CCNCC2)c(F)c1 [Example 431, N-[3-Fluoro-4-(piperidin-4-yloxy)phenyl]-3-methyl-5-{[5-(trifluoromethyl)pyrazin-2-yl]amino}-1,2-thiazole-4-carboxamide] | > 20 µM
14 | Cc1nsc(Nc2cnc3ccccc3n2)c1C(=O)Nc1cccc(NC(=O)C(F)(F)F)c1 [Example 432, 3-Methyl-5-(quinoxalin-2-ylamino)-N-{3-[(trifluoroacetyl)amino]phenyl}-1,2-thiazole-4-carboxamide] | > 20 µM
15 | Cc1nsc(Nc2ccc(C#N)cn2)c1C(=O)Nc1ccc(Nc2ccc(F)c(F)c2)nc1 [Example 433, 5-[(5-Cyanopyridin-2-yl)amino]-N-{6-[(3,4-difluorophenyl)amino]pyridin-3-yl}-3-methyl-1,2-thiazole-4-carboxamide] | > 20 µM
16 | Cc1nsc(Nc2cnc3ccccc3n2)c1C(=O)Nc1ccc(NCCN(C)C(=O)OC(C)(C)C)nc1 [Example 434, tert-Butyl methyl(2-{[5-({[3-methyl-5-(quinoxalin-2-ylamino)-1,2-thiazol-4-yl]carbonyl}amino)pyridin-2-yl]amino}ethyl)carbamate] | > 20 µM and 19 µM
17 | CC(=O)Nc1ccc(NC(=O)c2c(C)nsc2Nc2ccc(C#N)cn2)cn1 [Example 435, N-(6-Acetamidopyridin-3-yl)-5-[(5-cyanopyridin-2-yl)amino]-3-methyl-1,2-thiazole-4-carboxamide] | > 20 µM
